ChEMBL document CHEMBL1131745, “Novel C-ring analogues of 20(S)-camptothecin-part-2: synthesis and in vitro cytotoxicity of 5-C-substituted 20(S)-camptothecin analogues” (1999)

Tests used:
Type in all cases: functional
ACHN = assay: In vitro anti-cancer activity against ACHN(Renal) human tumor cell line
DU-145 = assay: In vitro anti-cancer activity against DU-145 (Prostate) human tumor cell line
HOP-62 = assay: In vitro anti-cancer activity against HOP 62(Lung) human tumor cell line
NCI/ADR-RES [1] = assay: In vitro anti-cancer activity against MCF-7/ADR (Breast) human tumor cell lines
OVCAR-8 [2] = assay: In vitro anti-cancer activity against OVCAR 8(Ovarian) human tumor cell lines
SF-268 [3] = assay: In vitro anti-cancer activity against SF 268(CNS) human tumor cell lines
UACC-62 = assay: In vitro anti-cancer activity against UACC 62(Melanoma) human tumor cell line
NCI/ADR-RES [4] = assay: In vitro anti-cancer activity against MCF-7/ADR (Breast) human tumor cell line
OVCAR-8 [5] = assay: In vitro anti-cancer activity against OVCAR 8(Ovarian) human tumor cell line
SF-268 [6] = assay: In vitro anti-cancer activity against SF 268(CNS) human tumor cell line

| SMILES | GI50 (ACHN) [nM] | GI50 (DU-145) [nM] | GI50 (HOP-62) [nM] | GI50 (NCI/ADR-RES [1]) [nM] | GI50 (OVCAR-8 [2]) [nM] | GI50 (SF-268 [3]) [nM] | GI50 (UACC-62) [nM] | GI50 (NCI/ADR-RES [4]) [nM] | GI50 (OVCAR-8 [5]) [nM] | GI50 (SF-268 [6]) [nM] |
| --- | --- | --- | --- | --- | --- | --- | --- | --- | --- | --- |
| CC[C@@]1(O)C(=O)OCc2c1cc1n(c2=O)C(CC(=O)OCCF)c2cc3ccccc3nc2-1 (stereo not given in full) | 80 | 100 | > 30000 | 6000 | 40 | 50 | 200 |  |  |  |
| CC[C@@]1(O)C(=O)OCc2c1cc1n(c2=O)C(CC(=O)OCC(F)(F)F)c2cc3ccccc3nc2-1 (stereo not given in full) | 170 | 280 | 130 | 500 | 1120 | 140 | 300 |  |  |  |
| CC[C@@]1(O)C(=O)OCc2c1cc1n(c2=O)C(CC(=O)OCCO)c2cc3ccccc3nc2-1 (stereo not given in full) | 10000 | 1000 | > 30000 | 6000 | 250 | 1000 | 200 |  |  |  |
| CC[C@@]1(O)C(=O)OCc2c1cc1n(c2=O)C(CC(C)=O)c2cc3ccccc3nc2-1 (stereo not given in full) | 3030 | 3920 |  | 3880 | 7390 | 7150 | 3540 |  |  |  |
| CC[C@@]1(O)C(=O)OCc2c1cc1n(c2=O)C(CC(=O)OC)c2cc3cc([N+](=O)[O-])ccc3nc2-1 (stereo not given in full) | 4610 | 8510 | 5250 |  | 12600 | 26200 | 4040 |  |  |  |
| CC[C@@]1(O)C(=O)OCc2c1cc1n(c2=O)C(CC(=O)OC)c2cc3c(O)cccc3nc2-1 (stereo not given in full) | 440 | 600 | 2090 |  | 1720 | 2320 | 1720 |  |  |  |
| CC[C@@]1(O)C(=O)OCc2c1cc1n(c2=O)C(CC(=O)N2CCCC2)c2cc3ccccc3nc2-1 (stereo not given in full) | 210 | 450 | 290 | 790 | 760 |  | 410 |  |  |  |
| CC[C@@]1(O)C(=O)OCc2c1cc1n(c2=O)C(CC(C)=O)c2cc3cc([N+](=O)[O-])ccc3nc2-1 (stereo not given in full) | 170 | 280 | 130 | 500 | 1120 | 140 | 300 |  |  |  |
| CC[C@@]1(O)C(=O)OCc2c1cc1n(c2=O)C(CC(N)=O)c2cc3ccccc3nc2-1 (stereo not given in full) | 16000 | 12000 | > 30000 |  | 20000 | 29000 | 16000 |  |  |  |
| CC[C@@]1(O)C(=O)OCc2c1cc1n(c2=O)C(CC(=O)OC)c2cc3ccccc3nc2-1 (stereo not given in full) | 5290 | 15500 |  | 7200 | 16300 | 18600 | 6440 |  |  |  |
| CC[C@@]1(O)C(=O)OCc2c1cc1n(c2=O)C(CC(=O)N2CCCCC2)c2cc3ccccc3nc2-1 (stereo not given in full) | 340 | 320 | 530 | 3030 | 3570 | 650 | 330 |  |  |  |
| CC[C@@]1(O)C(=O)OCc2c1cc1n(c2=O)C(CC(C)=O)c2cc3c(O)cccc3nc2-1 (stereo not given in full) | 1000 | 2000 | 4000 | 5000 | 3500 | 4000 | 7500 |  |  |  |
| CC[C@@]1(O)C(=O)OCc2c1cc1n(c2=O)Cc2cc3c(CN(C)C)c(O)ccc3nc2-1 [TOPOTECAN] | 40 | 40 | 50 |  |  |  | 30 | 70 | 200 | 80 |
